According to PubChem BioAssay (NCI):
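Following 48 hours of exposure in 96-well plates, responses at five concentrations were used to interpolate endpoints linearly. Definition used: TGI = concentration required for complete inhibition of growth.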

Assays:
Test in all cases: inhibition of tumour cell growth, NCI panel, 48 h
SF-295 CNS = test system: SF-295 CNS
LOX IMVI melanoma = test system: LOX IMVI melanoma
UACC-257 melanoma = test system: UACC-257 melanoma
SF-539 CNS = test system: SF-539 CNS
SF-268 CNS = test system: SF-268 CNS
786-0 renal = test system: 786-0 renal
UACC-62 melanoma = test system: UACC-62 melanoma
SK-MEL-2 melanoma = test system: SK-MEL-2 melanoma
A498 renal = test system: A498 renal
HOP-62 NSCLC = test system: HOP-62 NSCLC
U251 CNS = test system: U251 CNS
XF 498 CNS = test system: XF 498 CNS
HCT-116 colon = test system: HCT-116 colon
HL-60(TB) leukemia = test system: HL-60(TB) leukemia
LXFL 529 NSCLC = test system: LXFL 529 NSCLC
CAKI-1 renal = test system: CAKI-1 renal
RXF 393 renal = test system: RXF 393 renal
NCI-H226 lung = test system: NCI-H226 lung
SR leukemia = test system: SR leukemia
NCI-H23 lung = test system: NCI-H23 lung
OVCAR-4 ovarian = test system: OVCAR-4 ovarian
A549 NSCLC = test system: A549 NSCLC
SNB-75 CNS = test system: SNB-75 CNS
SK-MEL-28 melanoma = test system: SK-MEL-28 melanoma
SK-MEL-5 melanoma = test system: SK-MEL-5 melanoma
MOLT-4 leukemia = test system: MOLT-4 leukemia
HOP-92 NSCLC = test system: HOP-92 NSCLC
OVCAR-3 ovarian = test system: OVCAR-3 ovarian
OVCAR-8 ovarian = test system: OVCAR-8 ovarian
DMS 273 small cell lung = test system: DMS 273 small cell lung
TK-10 renal = test system: TK-10 renal
NCI-H460 lung = test system: NCI-H460 lung
M19-MEL melanoma = test system: M19-MEL melanoma
SN12C renal = test system: SN12C renal
KM12 colon = test system: KM12 colon
EKVX NSCLC = test system: EKVX NSCLC
SNB-78 CNS = test system: SNB-78 CNS
HOP-18 NSCLC = test system: HOP-18 NSCLC
SK-OV-3 ovarian = test system: SK-OV-3 ovarian
IGROV1 ovarian = test system: IGROV1 ovarian
KM20L2 colon = test system: KM20L2 colon
DLD-1 colon = test system: DLD-1 colon
RPMI-8226 leukemia = test system: RPMI-8226 leukemia
SW-620 colon = test system: SW-620 colon
K-562 leukemia = test system: K-562 leukemia
M14 melanoma = test system: M14 melanoma
OVCAR-5 ovarian = test system: OVCAR-5 ovarian
NCI-H522 lung = test system: NCI-H522 lung
MALME-3M melanoma = test system: MALME-3M melanoma
HCT-15 colon = test system: HCT-15 colon
HT29 colon = test system: HT29 colon
COLO 205 colon = test system: COLO 205 colon
UO-31 renal = test system: UO-31 renal
CCRF-CEM leukemia = test system: CCRF-CEM leukemia
ACHN renal = test system: ACHN renal
HCC-2998 colon = test system: HCC-2998 colon
RXF-631 renal = test system: RXF-631 renal
SNB-19 CNS = test system: SNB-19 CNS
DMS 114 small cell lung = test system: DMS 114 small cell lung

Compound `c1ccc2c(CNCCCCCCCCCCCCNCc3cccc4ccccc34)cccc2c1` has a TGI (SF-295 CNS) of 58.2 µM, a TGI (LOX IMVI melanoma) of 2.52 µM and a TGI (UACC-257 melanoma) of 3.17 µM. The TGI (SF-539 CNS) was 3 µM, the TGI (SF-268 CNS) was 4.84 µM and the TGI (786-0 renal) was 3.23 µM. It also gave a TGI (UACC-62 melanoma) of 3.35 µM, a TGI (SK-MEL-2 melanoma) of 2.93 µM and a TGI (A498 renal) of 19.7 µM. The TGI (HOP-62 NSCLC) was 4.56 µM, the TGI (U251 CNS) was 3.17 µM and the TGI (XF 498 CNS) was 3.11 µM. It also gave a TGI (HCT-116 colon) of 2.95 µM, a TGI (HL-60(TB) leukemia) of 3.12 µM and a TGI (LXFL 529 NSCLC) of 3.23 µM. The TGI (CAKI-1 renal) was 4.27 µM, the TGI (RXF 393 renal) was 2.66 µM and the TGI (NCI-H226 lung) was 4.57 µM. For the same compound, the TGI (SR leukemia) was 2.69 µM, the TGI (NCI-H23 lung) was 2.89 µM and the TGI (OVCAR-4 ovarian) was 3.05 µM. For the same compound, the TGI (A549 NSCLC) was 3.37 µM, the TGI (SNB-75 CNS) was 3.21 µM and the TGI (SK-MEL-28 melanoma) was 3.38 µM. It also gave a TGI (SK-MEL-5 melanoma) of 3.27 µM, a TGI (MOLT-4 leukemia) of 2.92 µM and a TGI (HOP-92 NSCLC) of 3.66 µM. It also gave a TGI (OVCAR-3 ovarian) of 3.84 µM, a TGI (OVCAR-8 ovarian) of 3.13 µM and a TGI (DMS 273 small cell lung) of over 100 µM. For the same compound, the TGI (TK-10 renal) was 4.74 µM, the TGI (NCI-H460 lung) was 2.95 µM and the TGI (M19-MEL melanoma) was 3.22 µM. For the same compound, the TGI (SN12C renal) was 13.6 µM, the TGI (KM12 colon) was 2.99 µM and the TGI (EKVX NSCLC) was 9.59 µM. For the same compound, the TGI (SNB-78 CNS) was 3.41 µM, the TGI (HOP-18 NSCLC) was 9.56 µM and the TGI (SK-OV-3 ovarian) was 26.5 µM. For the same compound, the TGI (IGROV1 ovarian) was 3.39 µM, the TGI (KM20L2 colon) was 3.37 µM and the TGI (DLD-1 colon) was 3.31 µM. It also gave a TGI (RPMI-8226 leukemia) of 2.55 µM, a TGI (SW-620 colon) of 3.2 µM and a TGI (K-562 leukemia) of 2.11 µM. For the same compound, the TGI (M14 melanoma) was 3.29 µM, the TGI (OVCAR-5 ovarian) was 2.94 µM and the TGI (NCI-H522 lung) was 3.35 µM. It also gave a TGI (MALME-3M melanoma) of 3.66 µM, a TGI (HCT-15 colon) of 3.08 µM and a TGI (HT29 colon) of 3.03 µM. The TGI (COLO 205 colon) was over 100 µM, the TGI (UO-31 renal) was 3.06 µM and the TGI (CCRF-CEM leukemia) was 3.2 µM. It also gave a TGI (ACHN renal) of 3.7 µM.

Work on `CCCCCCCCCCCCCCCCCC[N+](C)(C)Cc1ccc(C[N+](C)(C)CCCCCCCCCCCCCCCCCC)cc1` yielded a TGI (SF-295 CNS) of 24.2 µM, a TGI (LOX IMVI melanoma) of 32.3 µM and a TGI (UACC-257 melanoma) of 34 µM. The TGI (SF-268 CNS) was 43.1 µM, the TGI (786-0 renal) was 39.1 µM and the TGI (HCC-2998 colon) was 93.7 µM. The TGI (UACC-62 melanoma) was 47.6 µM, the TGI (SK-MEL-2 melanoma) was over 100 µM and the TGI (A498 renal) was 91.7 µM. For the same compound, the TGI (HOP-62 NSCLC) was 34.7 µM, the TGI (U251 CNS) was 56.2 µM and the TGI (HCT-116 colon) was 32.5 µM. It also gave a TGI (LXFL 529 NSCLC) of 12.8 µM, a TGI (CAKI-1 renal) of 47.7 µM and a TGI (RXF 393 renal) of 6.67 µM. It also gave a TGI (NCI-H226 lung) of 41.5 µM, a TGI (SR leukemia) of 5.63 µM and a TGI (NCI-H23 lung) of 18 µM. It also gave a TGI (OVCAR-4 ovarian) of over 100 µM, a TGI (A549 NSCLC) of 38.8 µM and a TGI (SNB-75 CNS) of 26 µM. The TGI (SK-MEL-28 melanoma) was 35 µM, the TGI (SK-MEL-5 melanoma) was 66.6 µM and the TGI (MOLT-4 leukemia) was 51.8 µM. For the same compound, the TGI (HOP-92 NSCLC) was 24.8 µM, the TGI (OVCAR-3 ovarian) was 40.6 µM and the TGI (OVCAR-8 ovarian) was 30.5 µM. For the same compound, the TGI (DMS 273 small cell lung) was 45.9 µM, the TGI (TK-10 renal) was 28.6 µM and the TGI (NCI-H460 lung) was over 100 µM. The TGI (RXF-631 renal) was 57.1 µM, the TGI (M19-MEL melanoma) was 59.8 µM and the TGI (SN12C renal) was 30.1 µM. It also gave a TGI (KM12 colon) of 39.4 µM, a TGI (EKVX NSCLC) of 43.1 µM and a TGI (SNB-78 CNS) of 47.1 µM. For the same compound, the TGI (HOP-18 NSCLC) was 34.8 µM, the TGI (SK-OV-3 ovarian) was 69.6 µM and the TGI (IGROV1 ovarian) was over 100 µM. It also gave a TGI (KM20L2 colon) of 92.7 µM, a TGI (DLD-1 colon) of 57.3 µM and a TGI (SNB-19 CNS) of 76.1 µM. It also gave a TGI (RPMI-8226 leukemia) of 48.7 µM, a TGI (SW-620 colon) of over 100 µM and a TGI (K-562 leukemia) of over 100 µM. The TGI (M14 melanoma) was 49 µM, the TGI (OVCAR-5 ovarian) was 96.7 µM and the TGI (NCI-H522 lung) was over 100 µM. The TGI (MALME-3M melanoma) was over 100 µM, the TGI (HCT-15 colon) was over 100 µM and the TGI (HT29 colon) was 38.6 µM. The TGI (COLO 205 colon) was over 100 µM, the TGI (DMS 114 small cell lung) was 34.1 µM and the TGI (UO-31 renal) was 56.3 µM. The TGI (CCRF-CEM leukemia) was 44.1 µM and the TGI (ACHN renal) was 30.3 µM.
